Measured values: patent US12655116B2, “Substituted isophthalic acid diamides” (Bayer Aktiengesellschaft, priority 2020, dated 2026)

How the values were obtained:
PHBPU [1] = assay: Post-emergence herbicidal action against PHBPU; type: in vivo, Pharbitis purpurea
How it was run: (§1)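 Sandy loam, greenhouse; treatment 2–3 weeks after sowing, one-leaf stage. Aqueous suspension or emulsion from WP/EC sprayed on foliage (600–800 l/ha, 0.2% wetting agent). Readout: visual % action, ~3 weeks.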

ECHCG [2] = assay: Post-emergence herbicidal action against ECHCG; type: in vivo, Echinochloa crus-galli
How it was run: as §1

VERPE [3] = assay: Post-emergence herbicidal action against VERPE; type: in vivo, Veronica persica; details: 20 g/ha
How it was run: as §1

PHBPU [4] = assay: Pre-emergence herbicidal action against PHBPU; type: in vivo, Pharbitis purpurea
How it was run: (§2)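 Seeds sown in sandy loam, soil-covered; compound sprayed on soil surface pre-emergence. Application: WP/EC, 600–800 l/ha, 0.2% wetting agent. Readout: visual % damage at 3 weeks.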

MATIN [5] = assay: Pre-emergence herbicidal action against MATIN; type: in vivo, Matricaria inodora
How it was run: as §2

ABUTH [6] = assay: Pre-emergence herbicidal action against ABUTH; type: in vivo, Abutilon theophrasti; details: for Pre-emergence action against ABUTH (herbicidal activity): 80 g/ha, scored visually after 3 weeks vs untreated controls (100% = plants have died, 0% = like control plants); for Pre-emergence action against ABUTH (herbicidal activity in percent): dosage 20 g/ha, scored visually after 3 weeks vs untreated controls, 100% = plants have died, 0% = like control plants
How it was run: as §2

SETVI [7] = assay: Post-emergence herbicidal action against SETVI; type: in vivo, Setaria viridis
How it was run: as §1

POLCO = assay: Pre-emergence herbicidal action against POLCO; type: in vivo, Polygonum convolvulus; details: dosage 80 g/ha
How it was run: as §2

ABUTH [8] = assay: Post-emergence herbicidal action against ABUTH; type: in vivo, Abutilon theophrasti; details: visual assessment about 3 weeks after treatment vs untreated controls
How it was run: as §1

AMARE [9] = assay: Pre-emergence herbicidal action against AMARE; type: in vivo, Amaranthus retroflexus
How it was run: as §2

VIOTR [10] = assay: Post-emergence herbicidal action against VIOTR; type: in vivo, Viola tricolor
How it was run: as §1

SETVI [11] = assay: Pre-emergence herbicidal action against SETVI; type: in vivo, Setaria viridis; details: dosage 80 g/ha
How it was run: as §2

ALOMY [12] = assay: Post-emergence herbicidal action against ALOMY; type: in vivo, Alopecurus myosuroides; details: visual assessment about 3 weeks after treatment vs untreated controls
How it was run: as §1

DIGSA [13] = assay: Post-emergence herbicidal action against DIGSA; type: in vivo, Digitaria sanguinalis; details: for Post-emergence action against DIGSA: 20 g/ha
How it was run: as §1

VIOTR [14] = assay: Pre-emergence herbicidal action against VIOTR; type: in vivo, Viola tricolor
How it was run: as §2

AMARE [15] = assay: Post-emergence herbicidal action against AMARE; type: in vivo, Amaranthus retroflexus; details: 20 g/ha, visual assessment about 3 weeks after treatment, 100% = plants have died, 0% = like control plants
How it was run: as §1

VERPE [16] = assay: Pre-emergence herbicidal action against VERPE; type: in vivo, Veronica persica; details: dosage 80 g/ha
How it was run: as §2

AVEFA [17] = assay: Pre-emergence herbicidal action against AVEFA; type: in vivo, Avena fatua
How it was run: as §2

ALOMY [18] = assay: Pre-emergence herbicidal action against ALOMY; type: in vivo, Alopecurus myosuroides; details: 80 g/ha, pre-emergence, scored visually after 3 weeks vs untreated controls (100% = plants have died, 0% = like control plants)
How it was run: as §2

DIGSA [19] = assay: Pre-emergence herbicidal action against DIGSA; type: in vivo, Digitaria sanguinalis
How it was run: as §2

ECHCG [20] = assay: Pre-emergence herbicidal action against ECHCG; type: in vivo, Echinochloa crus-galli; details: 80 g/ha
How it was run: as §2

AVEFA [21] = assay: Post-emergence herbicidal action against AVEFA; type: in vivo, Avena fatua; details: 20 g/ha, visual assessment about 3 weeks after treatment, 100% = plants have died, 0% = like control plants
How it was run: as §1

MATIN [22] = assay: Post-emergence herbicidal action against MATIN; type: in vivo, Matricaria inodora
How it was run: as §1

STEME [23] = assay: Post-emergence herbicidal action against STEME; type: in vivo, Stellaria media; details: 20 g/ha
Procedure: Seeds of monocotyledonous and dicotyledonous weed and crop plants are laid out in sandy loam soil in wood-fiber pots, covered with soil and cultivated in a greenhouse under good growth conditions. 2 to 3 weeks after sowing, the test plants are treated at the one-leaf stage. The compounds of the invention, formulated in the form of wettable powders (WP) or as emulsion concentrates (EC), are then sprayed onto the green parts of the plants in the form of an aqueous suspension or emulsion at a water application rate equivalent to 600 to 800 l/ha, with addition of 0.2% wetting agent. After the test plants have been left to stand in the greenhouse under optimal growth conditions for about 3 weeks, the action of the preparations is assessed visually in comparison to untreated controls (herbicidal action in percent (%): 100% activity=the plants have died, 0% activity=like control plants). […] The tables below illustrate, in an illustrative manner, the post-emergence herbicidal action of the compounds of the invention, the herbicidal activity being stated in percent.

STEME [24] = assay: Pre-emergence herbicidal action against STEME; type: in vivo, Stellaria media; details: dosage 80 g/ha
Text: Seeds of monocotyledonous and dicotyledonous weed plants and crop plants are laid out in sandy loam soil in wood-fiber pots and covered with soil. The compounds of the invention, formulated in the form of wettable powders (WP) or as emulsion concentrates (EC), are then applied to the surface of the covering soil in the form of an aqueous suspension or emulsion at a water application rate equivalent to 600 to 800 l/ha, with addition of 0.2% wetting agent. After the treatment, the pots are placed in a greenhouse and kept under good growth conditions for the trial plants. The damage to the test plants is scored visually after a test period of 3 weeks by comparison with untreated controls (herbicidal activity in percent (%): 100% activity=the plants have died, 0% activity=like control plants). […] The tables below illustrate, in an illustrative manner, the post-emergence herbicidal action of the compounds of the invention, the herbicidal activity being stated in percent.

[25] = 20 g/ha, scored visually after 3 weeks vs untreated controls, 100% = plants have died, 0% = like control plants
[26] = 80 g/ha, scored visually after 3 weeks vs untreated controls (100% = plants have died, 0% = like control plants)

| SMILES | Post-emergence action against ECHCG in % (ECHCG [2]; dosage 20 g/ha) | Pre-emergence action against MATIN in % (MATIN [5]; dosage 20 g/ha) | Pre-emergence action against MATIN in % (MATIN [5]; dosage 80 g/ha) | Pre-emergence action against ABUTH (herbicidal activity) (ABUTH [6]) | Pre-emergence action against ABUTH (herbicidal activity in percent) (ABUTH [6]) | Post-emergence action against SETVI in % (SETVI [7]; dosage 20 g/ha) | Post-emergence action against ABUTH in % (ABUTH [8]; dosage 5 g/ha) | Post-emergence action against ABUTH in % (ABUTH [8]; dosage 20 g/ha) | Pre-emergence action against AMARE in % (AMARE [9]; [25]) | Pre-emergence action against AMARE in % (AMARE [9]; [26]) | Pre-emergence action against SETVI in % (SETVI [11]) | Post-emergence action against DIGSA (DIGSA [13]) | Pre-emergence action against VIOTR in % (VIOTR [14]; dosage 80 g/ha) | Post-emergence action at 20 g/ha against AMARE in % (AMARE [15]) | Pre-emergence action against DIGSA in % (DIGSA [19]; dosage 20 g/ha) | Pre-emergence action against DIGSA in % (DIGSA [19]; dosage 80 g/ha) | Pre-emergence action against ECHCG in % (ECHCG [20]) | Post-emergence action against STEME in % (STEME [23]) | Post-emergence action against SETVI in % (SETVI [7]; dosage 5 g/ha) | also measured |
| --- | --- | --- | --- | --- | --- | --- | --- | --- | --- | --- | --- | --- | --- | --- | --- | --- | --- | --- | --- | --- |
| CCn1nnnc1NC(=O)c1ccc(C(F)(F)F)c(C(=O)NCC(F)F)c1C1CC1 [Example 2-291] | 80% | 90% | 100% | 100% | 100% | 90% | 80% | 80% | 100% | 100% | 100% | 100% | 100% | 90% | 100% | 100% | 90% |  |  | Post-emergence action against PHBPU in % (PHBPU [1]; dosage 5 g/ha): 80%; Post-emergence action against PHBPU in % (PHBPU [1]; dosage 20 g/ha): 90%; Post-emergence action against ECHCG in % (ECHCG [2]; dosage 5 g/ha): 80%; Post-emergence action against VERPE in % (VERPE [3]): 80%; Pre-emergence action against PHBPU in % (PHBPU [4]; dosage 20 g/ha): 80%; Pre-emergence action against PHBPU in % (PHBPU [4]; dosage 80 g/ha): 90%; Pre-emergence action against POLCO in % (POLCO): 80%; Post-emergence action against VIOTR in % (VIOTR [10]; 5 g/ha): 80%; Post-emergence action against VIOTR in % (VIOTR [10]; 20 g/ha): 90%; Post-emergence action against ALOMY in % (ALOMY [12]; dosage 5 g/ha): 80%; Post-emergence action against ALOMY in % (ALOMY [12]; dosage 20 g/ha): 80%; Post-emergence action against DIGSA in % (DIGSA [13]; 5 g/ha): 90%; Pre-emergence action against VIOTR in % (VIOTR [14]; dosage 20 g/ha): 100%; Pre-emergence action against VERPE in % (VERPE [16]): 90%; Pre-emergence action against AVEFA (AVEFA [17]; 20 g/ha, scored visually after 3 weeks, 100% = plants have died, 0% = like control plants): 80%; Pre-emergence action against AVEFA in % (AVEFA [17]; 80 g/ha, pre-emergence): 80%; Pre-emergence action against ALOMY (herbicidal activity) (ALOMY [18]): 80%; Post-emergence action at 20 g/ha against AVEFA in % (AVEFA [21]): 90%; Post-emergence action against MATIN in % (MATIN [22]; dosage 5 g/ha): 80%; Post-emergence action against MATIN in % (MATIN [22]; dosage 20 g/ha): 90% |
| NC(=O)c1c(C(F)(F)F)ccc(C(=O)Nc2nnco2)c1Cl [Example 5-253] | 80% |  |  | 100% | 90% | 80% | 90% | 90% | 100% | 100% | 80% | 80% | 90% | 80% | 80% | 90% |  | 80% | 80% | Pre-emergence action against STEME in % (STEME [24]): 90% |
| Cc1nnc(NC(=O)c2ccc(C(F)F)c(C(=O)NC3CC3)c2C)o1 [Example 6-33] | 80% | 80% | 90% | 90% |  | 80% |  | 80% | 90% | 100% | 100% |  | 100% | 90% | 80% | 100% | 100% | 80% | 80% |  |
